Consider 2 compounds from patent publication US12590118B2, “Salt and crystal form of steroid derivative regulator” (Shanghai Hansoh Biomedical Co., Ltd., priority 2019, dated 2026).

Values after ≈ are worked out from the molar mass of the structure shown. A value given as a limit tells only on which side of the number the result lay.

What all share (assay type): physicochemical
The nature of data set [1]: Competitive experiment of different crystal forms of the free base. To be noted: 40° C. As to the method:
The stability among crystal forms I, II and III of the free base of Example 40 was investigated, so as to select the stable crystal form.
Multiple portions of about 20 mg of crystal forms I, II and III of the free base of Example 40 were accurately weighed, and mixed in pairs in equal amounts. Methyl tert-butyl ether and n-heptane were added respectively, and the resulting mixture was stirred at 40° C. for 7 days. The mixture was centrifuged at high speed, the supernatant was removed, and the resulting solid precipitate was vacuum dried in an oven at 40° C. and characterized by XRPD.

A short description of data set [2]: Solubility experiment (thermodynamic solubility at 37° C.). Conditions: 24 hours. As to the method:
The solubility of the free base and salt of the compound in water, Fasted State Simulated Gastric Fluid (FaSGF), Fasted State Simulated Intestinal Fluid (FaSSIF) and Fed State Simulated Intestinal Fluid (FeSSIF) was compared, so as to provide a basis for evaluating the druggability of the crystal form and salt.
About 2 to 3 mg of crystal forms I, II and III of the free base of Example 40 were weighed, suspended in 1 mL of Fasted State Simulated Gastric Fluid (FaSSGF), Fasted State Simulated Intestinal Fluid (FaSSIF), Fed State Simulated Intestinal Fluid (FeSSIF) and pure water respectively, and shaked for 24 hours. Thermodynamic solubility of the compound at 37° C. was determined using HPLC by external standard method.

The nature of data set [3]: Hygroscopicity experiment (DVS). To be noted: for hygroscopicity (in words): DVS; for Hygroscopicity (25° C./80% RH): DVS vapour sorption weight gain at 80% RH. As to the method: The hygroscopicity of crystal forms I, II and III of the free base of Example 40 under different relative humidity conditions was investigated, so as to provide a basis for screening of the crystal form and salt of the compound, production and storage.
10 to 15 mg of the free base of Example 40 was placed in the sample chamber of DVS. DVS was carried out, and the vapour sorption weight gain percentage of the compound at 80% RH was recorded at the same time.

For the compound `C[C@@H]1C[C@H](C(=O)Cn2ccc(C#N)n2)[C@@]2(C)CC[C@H]3[C@@H](CC[C@@H]4C[C@](C)(O)CC[C@@H]43)[C@H]12` [Crystal form II, 1-(2-((3R,5R,8R,9R,10S,13S,14S,15R,17S)-3-Hydroxy-3,13,15-trimethylhexadecahydro-1H-cyclopenta[a]phenanthren-17-yl)-2-oxoethyl)-1H-pyrazole-3-carbonitrile], the “solubility in n-heptane (in words)” value in data set [1] is recorded as “almost insoluble”. In addition, the Solubility (in general, how much of the substance goes into solution per volume) in data set [2] (FaSSGF) was under 1 µg/mL; in data set [2] (FaSSIF) it was 3.705 µg/mL (≈ 8.75 µM); in data set [2] (FeSSIF), 18.495 µg/mL (≈ 43.7 µM); in data set [2] (Water), under 1 µg/mL. In addition, the “hygroscopicity (in words)” value in data set [3] is “no hygroscopicity”. In data set [3], the “Hygroscopicity (25° C./80% RH)” value was 0.03%.

Regarding `C[C@@H]1C[C@H](C(=O)Cn2ccc(C#N)n2)[C@@]2(C)CC[C@H]3[C@@H](CC[C@@H]4C[C@](C)(O)CC[C@@H]43)[C@H]12` [Crystal form III, 1-(2-((3R,5R,8R,9R,10S,13S,14S,15R,17S)-3-Hydroxy-3,13,15-trimethylhexadecahydro-1H-cyclopenta[a]phenanthren-17-yl)-2-oxoethyl)-1H-pyrazole-3-carbonitrile], in data set [1], the “solubility in n-heptane (in words)” value is “almost insoluble”. The Solubility in data set [2] (FaSSGF) is under 1 µg/mL; in data set [2] (FaSSIF), 4.914 µg/mL (≈ 11.6 µM); in data set [2] (FeSSIF), 28.166 µg/mL (≈ 66.5 µM); in data set [2] (Water), under 1 µg/mL. For the same compound, in data set [3], the “hygroscopicity (in words)” value was “no hygroscopicity”. Further, in data set [3], the “Hygroscopicity (25° C./80% RH)” value is listed as 0.10%.
